According to USRE29226E, “Preparation of carboxylate and sulfonate salts of 1-cis-(3-chloro-2-propenyl)-3,5,7-triaza-1-azoniatricyclo(3.3.1.1^3, 7)decane-II” (The Dow Chemical Company, priority 1976, dated 1977):
Structures can show the parent of a compound that is named as a salt. Where two headings read alike, the source gives them in different places.

What was measured:
Format in all cases: cell-based
S. cerevisiae = test: conventional agar dilution test, S. cerevisiae; settings: Sc = S. cerevisiae; for Minimum Inhibitory Concentration / MIC: complete growth inhibition, agar dilution; for MIC: read-out: Minimum Inhibitory Concentration
Source text: (§1) In representative operations, the products of the invention when tested for antimicrobial activity using conventional agar dilution tests gave complete growth inhibition against the following organisms at the indicated concentrations in parts per million:
(§2) Minimum Inhibitory Concentration, ppm

P. chrysogenum = test: conventional agar dilution test, P. chrysogenum; settings: Pen = P. chrysogenum
Source text: as §1, §2

A. aerogenes = test: conventional agar dilution test, A. aerogenes; settings: Aa = A. aerogenes, complete growth inhibition
Source text: as §1, §2

C. pelliculosa = test: conventional agar dilution test, C. pelliculosa; settings: Cp = C. pelliculosa
Source text: as §1, §2

A. niger = test: conventional agar dilution test, A. niger; settings: An = A. niger, complete growth inhibition; for MIC: Aspergillus niger, read-out: Minimum Inhibitory Concentration
Source text: as §1, §2

P. aeruginosa = test: conventional agar dilution test, P. aeruginosa; settings: Pa = P. aeruginosa, complete growth inhibition; for MIC: Pseudomonas aeruginosa, read-out: Minimum Inhibitory Concentration
Source text: as §1, §2

S. aureus = test: conventional agar dilution test, S. aureus; settings: Sa = S. aureus, complete growth inhibition
Source text: as §1, §2

S. typhosa = test: conventional agar dilution test, S. typhosa; settings: St = S. typhosa, complete growth inhibition
Source text: as §1, §2

[1] = complete growth inhibition, agar dilution

## Cl/C=C\C[N+]12CN3CN(CN(C3)C1)C2 [Id]
S. cerevisiae
  Minimum Inhibitory Concentration: 500 ppm
P. chrysogenum; [1]
  Minimum Inhibitory Concentration: 500 ppm
A. aerogenes
  Minimum Inhibitory Concentration: 250 ppm
C. pelliculosa
  inhibition at 500 ppm: .-+. (>90% inhibition at 500 ppm)
A. niger
  Minimum Inhibitory Concentration: > 500 ppm
P. aeruginosa
  Minimum Inhibitory Concentration: 250 ppm
S. aureus
  Minimum Inhibitory Concentration: 250 ppm
S. typhosa
  Minimum Inhibitory Concentration: 50 ppm

## Cl/C=C\C[N+]12CN3CN(CN(C3)C1)C2 [Example 1, Mono-benzoate Salt of Cis]
S. cerevisiae; Saccharomyces cerevisiae
  MIC: > 500 µg/mL
P. chrysogenum; [1]
  Minimum Inhibitory Concentration: 500 ppm
A. aerogenes
  Minimum Inhibitory Concentration: 100 ppm
C. pelliculosa; Hansenula anomala, complete growth inhibition, agar dilution, read-out: Minimum Inhibitory Concentration
  MIC: > 500 µg/mL
A. niger
  MIC: > 500 µg/mL
P. aeruginosa
  MIC: 250 µg/mL
S. aureus
  Minimum Inhibitory Concentration: 100 ppm
S. typhosa
  Minimum Inhibitory Concentration: 50 ppm

## Cl/C=C\C[N+]12CN3CN(CN(C3)C1)C2 [Ic]
S. cerevisiae
  Minimum Inhibitory Concentration: 500 ppm
P. chrysogenum; [1]
  Minimum Inhibitory Concentration: 500 ppm
A. aerogenes
  Minimum Inhibitory Concentration: 100 ppm
C. pelliculosa
  inhibition at 500 ppm: ± (50% inhibition at 500 ppm)
A. niger
  Minimum Inhibitory Concentration: > 500 ppm
P. aeruginosa
  Minimum Inhibitory Concentration: 250 ppm
S. aureus
  Minimum Inhibitory Concentration: 100 ppm
S. typhosa
  Minimum Inhibitory Concentration: 100 ppm

## Cl/C=C\C[N+]12CN3CN(CN(C3)C1)C2 [Ie]
S. cerevisiae
  Minimum Inhibitory Concentration: > 500 ppm
P. chrysogenum; [1]
  Minimum Inhibitory Concentration: > 500 ppm
A. aerogenes
  Minimum Inhibitory Concentration: 250 ppm
C. pelliculosa; [1]
  Minimum Inhibitory Concentration: > 500 ppm
A. niger
  Minimum Inhibitory Concentration: > 500 ppm
P. aeruginosa
  Minimum Inhibitory Concentration: 250 ppm
S. aureus
  Minimum Inhibitory Concentration: 75 ppm
S. typhosa
  Minimum Inhibitory Concentration: 25 ppm

## Cl/C=C\C[N+]12CN3CN(CN(C3)C1)C2 [Ig]
S. cerevisiae
  Minimum Inhibitory Concentration: > 500 ppm
P. chrysogenum; Penicillium chrysogenum, 500 ppm
  inhibition at 500 ppm: > 90%
A. aerogenes
  Minimum Inhibitory Concentration: 250 ppm
C. pelliculosa; [1]
  Minimum Inhibitory Concentration: > 500 ppm
A. niger
  Minimum Inhibitory Concentration: > 500 ppm
P. aeruginosa
  Minimum Inhibitory Concentration: 250 ppm
S. aureus
  Minimum Inhibitory Concentration: 50 ppm
S. typhosa
  Minimum Inhibitory Concentration: 50 ppm

## Cl/C=C\C[N+]12CN3CN(CN(C3)C1)C2 [Ib]
S. cerevisiae
  inhibition at 500 ppm: ± (50% inhibition at 500 ppm)
P. chrysogenum; [1]
  Minimum Inhibitory Concentration: 500 ppm
A. aerogenes
  Minimum Inhibitory Concentration: 75 ppm
C. pelliculosa
  inhibition at 500 ppm: .-+. (>90% inhibition at 500 ppm)
A. niger
  Minimum Inhibitory Concentration: > 500 ppm
P. aeruginosa
  Minimum Inhibitory Concentration: 250 ppm
S. aureus
  Minimum Inhibitory Concentration: 75 ppm
S. typhosa
  Minimum Inhibitory Concentration: 50 ppm

## Cl/C=C\C[N+]12CN3CN(CN(C3)C1)C2 [Example 2, p-Toluene Sulfonate Mono-Salt of Cis]
S. cerevisiae; Saccharomyces cerevisiae, read-out: inhibition at 500 ppm
  inhibition at 500 ppm: 50%
P. chrysogenum; [1]
  Minimum Inhibitory Concentration: 500 ppm
A. aerogenes
  Minimum Inhibitory Concentration: 100 ppm
C. pelliculosa
  inhibition at 500 ppm: ± (50% inhibition at 500 ppm)
A. niger
  Minimum Inhibitory Concentration: > 500 ppm
P. aeruginosa
  Minimum Inhibitory Concentration: 250 ppm
S. aureus
  Minimum Inhibitory Concentration: 250 ppm
S. typhosa
  Minimum Inhibitory Concentration: 50 ppm

## Cl/C=C\C[N+]12CN3CN(CN(C3)C1)C2 [Ia]
S. cerevisiae
  inhibition at 500 ppm: ± (50% inhibition at 500 ppm)
P. chrysogenum; [1]
  Minimum Inhibitory Concentration: > 500 ppm
A. aerogenes
  Minimum Inhibitory Concentration: 100 ppm
C. pelliculosa
  inhibition at 500 ppm: ± (50% inhibition at 500 ppm)
A. niger
  Minimum Inhibitory Concentration: > 500 ppm
P. aeruginosa
  Minimum Inhibitory Concentration: 250 ppm
S. aureus
  Minimum Inhibitory Concentration: 100 ppm
S. typhosa
  Minimum Inhibitory Concentration: 50 ppm

## Cl/C=C\C[N+]12CN3CN(CN(C3)C1)C2 [Ih]
S. cerevisiae
  Minimum Inhibitory Concentration: > 500 ppm
P. chrysogenum; [1]
  Minimum Inhibitory Concentration: > 500 ppm
A. aerogenes
  Minimum Inhibitory Concentration: 250 ppm
C. pelliculosa; [1]
  Minimum Inhibitory Concentration: > 500 ppm
A. niger
  Minimum Inhibitory Concentration: > 500 ppm
P. aeruginosa
  Minimum Inhibitory Concentration: 250 ppm
S. aureus
  Minimum Inhibitory Concentration: 250 ppm
S. typhosa
  Minimum Inhibitory Concentration: 75 ppm

## Cl/C=C\C[N+]12CN3CN(CN(C3)C1)C2 [Ii]
S. cerevisiae
  Minimum Inhibitory Concentration: 500 ppm
P. chrysogenum; [1]
  Minimum Inhibitory Concentration: 100 ppm
A. aerogenes
  Minimum Inhibitory Concentration: 250 ppm
C. pelliculosa; [1]
  Minimum Inhibitory Concentration: 250 ppm
A. niger
  Minimum Inhibitory Concentration: 500 ppm
P. aeruginosa
  Minimum Inhibitory Concentration: 250 ppm
S. aureus
  Minimum Inhibitory Concentration: 250 ppm
S. typhosa
  Minimum Inhibitory Concentration: 50 ppm

## Cl/C=C\C[N+]12CN3CN(CN(C3)C1)C2.[Cl-] [Cis, cis-1-(3-chloro-2-propenyl)-3,5,7-triaza-1-azoniatricyclo(3.3.1.1^3,7)decane chloride, reference compound]
S. cerevisiae; Saccharomyces cerevisiae
  MIC: 250 µg/mL
P. chrysogenum; Penicillium chrysogenum, complete growth inhibition, agar dilution, read-out: Minimum Inhibitory Concentration
  MIC: 250 µg/mL
A. aerogenes; Klebsiella aerogenes, read-out: Minimum Inhibitory Concentration
  MIC: 50 µg/mL
C. pelliculosa
  inhibition at 500 ppm: ± (50% inhibition at 500 ppm)
A. niger
  MIC: > 500 µg/mL
P. aeruginosa
  MIC: 100 µg/mL
S. aureus; Staphylococcus aureus, read-out: Minimum Inhibitory Concentration
  MIC: 50 µg/mL
S. typhosa; read-out: Minimum Inhibitory Concentration
  MIC: 25 µg/mL

## Cl/C=C\C[N+]12CN3CN(CN(C3)C1)C2 [If]
S. cerevisiae
  Minimum Inhibitory Concentration: 500 ppm
P. chrysogenum; [1]
  Minimum Inhibitory Concentration: 100 ppm
A. aerogenes
  Minimum Inhibitory Concentration: 250 ppm
C. pelliculosa; [1]
  Minimum Inhibitory Concentration: 250 ppm
A. niger
  Minimum Inhibitory Concentration: 250 ppm
P. aeruginosa
  Minimum Inhibitory Concentration: 250 ppm
S. aureus
  Minimum Inhibitory Concentration: 250 ppm
S. typhosa
  Minimum Inhibitory Concentration: 75 ppm

## Cl/C=C\C[N+]12CN3CN(CN(C3)C1)C2 [Ij]
S. cerevisiae
  Minimum Inhibitory Concentration: 500 ppm
P. chrysogenum; [1]
  Minimum Inhibitory Concentration: 250 ppm
A. aerogenes
  Minimum Inhibitory Concentration: 75 ppm
C. pelliculosa; [1]
  Minimum Inhibitory Concentration: 500 ppm
A. niger
  Minimum Inhibitory Concentration: 500 ppm
P. aeruginosa
  Minimum Inhibitory Concentration: 250 ppm
S. aureus
  Minimum Inhibitory Concentration: 250 ppm
S. typhosa
  Minimum Inhibitory Concentration: 75 ppm
